Row | melting point [°C] | Structure (SMILES)
1 | 207 to 208 | CC(C)C(C)OC(=O)Nc1ccc(-c2c(C#N)c3ccc(OC4CCOC4)cc3n2C2CC2)cc1 (centres unmarked) [Compound 1446]
2 | 220 to 222 | CC(OC(=O)Nc1ccc(-c2c(C#N)c3ccc(OC4CCOC4)cc3n2C2CC2)cc1)C(C)(C)C (centres unmarked) [Compound 1447]
3 | 182 to 184 | CC(NC(=O)Nc1ccc(-c2c(C#N)c3ccc(OC4CCOC4)cc3n2C2CC2)cc1)c1ccc(F)cc1 (centres unmarked) [Compound 1448]
4 | 180 to 181 | CC(C)OC(=O)Nc1ccc(-c2c(C#N)c3ccc(OC4CCOC4)cc3n2C2CC2)cc1 (centres unmarked) [Compound 1449]
5 | 162 to 163 | CCCS(=O)(=O)Nc1ccc(-c2c(C#N)c3ccc(OCCCO)cc3n2C2CCC2)cc1 [Compound 1450]
6 | 163 to 164 | CCCS(=O)(=O)Nc1ccc(-c2c(C#N)c3ccc(OCCO)cc3n2C2CCC2)cc1 [Compound 1451]
7 | 183 to 184 | CC(OC(=O)Nc1ccc(-c2c(C#N)c3ccc(OC4CCOC4)cc3n2C2CCC2)cc1)C1CC1 (centres unmarked) [Compound 1453]
8 | 183 to 184 | CC(C)C(OC(=O)Nc1ccc(-c2c(C#N)c3ccc(OC4CCOC4)cc3n2C2CCC2)cc1)C(C)C (centres unmarked) [Compound 1454]
9 | 183 to 184 | N#Cc1c(-c2ccc(NC(=O)OC3CCC3)cc2)n(C2CCC2)c2cc(OC3CCOC3)ccc12 (centres unmarked) [Compound 1455]
10 | 183 to 184 | CC(OC(=O)Nc1ccc(-c2c(C#N)c3ccc(OC4CCOC4)cc3n2C2CCC2)cc1)c1ccccc1 (centres unmarked) [Compound 1456]
11 | 183 to 184 | CC(OC(=O)Nc1ccc(-c2c(C#N)c3ccc(OC4CCOC4)cc3n2C2CCC2)cc1)C(F)(F)F (centres unmarked) [Compound 1457]
12 | 183 to 184 | CCC(OC(=O)Nc1ccc(-c2c(C#N)c3ccc(OC4CCOC4)cc3n2C2CCC2)cc1)C(C)C (centres unmarked) [Compound 1458]
13 | 183 to 184 | CCC(C)C(C)OC(=O)Nc1ccc(-c2c(C#N)c3ccc(OC4CCOC4)cc3n2C2CCC2)cc1 (centres unmarked) [Compound 1459]
14 | 183 to 184 | CC(OC(=O)Nc1ccc(-c2c(C#N)c3ccc(OC4CCOC4)cc3n2C2CCC2)cc1)C1CCCC1 (centres unmarked) [Compound 1460]
15 | 183 to 184 | CC(C)NC(=O)Nc1ccc(-c2c(C#N)c3ccc(OC4CCOC4)cc3n2C2CCC2)cc1 (centres unmarked) [Compound 1462]
16 | 170 to 172 | CC(C)Nc1ccc(-c2c(C#N)c3ccc(OC4CCOC4)cc3n2C2CC2)cc1 (centres unmarked) [Compound 2150]
17 | 189 to 191 | CCN(CC)C(=O)c1ccc2c(C#N)c(-c3ccc(NC(=O)OC(C)C)cc3)n(C3CCC3)c2c1 [Compound 2186]
18 | 194 to 195 | CCOc1ccc2c(C#N)c(-c3ccc(C(=O)NCCc4ccccn4)cc3)n(C3CCC3)c2c1 [Compound 2250]
19 | 172 to 173 | CCOc1ccc2c(C#N)c(-c3ccc(C(=O)N4CC[C@@H](O)C4)cc3)n(C3CCC3)c2c1 [Compound 2251]
20 | 160 to 163 | CCCN(CCC)C(=O)c1ccc2c(C#N)c(-c3ccc(NC(=O)O[C@H](C)C4CC4)cc3)n(C3CCC3)c2c1 [Compound 2271]
21 | 166 to 168 | CCN(CC)C(=O)c1ccc2c(C#N)c(-c3ccc(NC(=O)O[C@H](C)C4CC4)cc3)n(C3CCC3)c2c1 [Compound 2272]
22 | 118 to 121 | CCC(C)NC(=O)c1ccc2c(C#N)c(-c3ccc(NC(=O)O[C@H](C)C4CC4)cc3)n(C3CCC3)c2c1 (some centres unmarked) [Compound 2273]
23 | 114 to 117 | CCN(C)C(=O)c1ccc2c(C#N)c(-c3ccc(NC(=O)O[C@H](C)C4CC4)cc3)n(C3CCC3)c2c1 [Compound 2275]
24 | 118 to 120 | C[C@@H](OC(=O)Nc1ccc(-c2c(C#N)c3ccc(C(=O)N(C)C)cc3n2C2CCC2)cc1)C1CC1 [Compound 2276]

Row | melting point [°C] | Structure (SMILES)
25 | 217 to 221 | COc1ccc2c(F)c(-c3ccc(NC(=O)NC(C)C)cc3)n(CC3CC3)c2c1 [Compound 2277]
26 | 205 to 207 | CCN(CC)C(=O)c1ccc2c(C#N)c(-c3ccc(NS(=O)(=O)C4CC4)cc3)n(C3CCC3)c2c1 [Compound 2294]
27 | 105 to 107 | CCC(C)NC(=O)c1ccc2c(C#N)c(-c3ccc(NS(=O)(=O)C4CC4)cc3)n(C3CCC3)c2c1 (centres unmarked) [Compound 2295]
28 | 202 to 205 | CCN(C)C(=O)c1ccc2c(C#N)c(-c3ccc(NS(=O)(=O)C4CC4)cc3)n(C3CCC3)c2c1 [Compound 2296]
29 | 235 to 237 | CN(C)C(=O)c1ccc2c(C#N)c(-c3ccc(NS(=O)(=O)C4CC4)cc3)n(C3CCC3)c2c1 [Compound 2297]
30 | 204 to 205 | CC(C)OC(=O)Nc1ccc(-c2c(C#N)c3cc(OCCCn4cncn4)ccc3n2C2CCC2)cc1 [Compound 2605]
31 | 148 to 150 | CC(C)OC(=O)Nc1ccc(-c2c(C#N)c3cc(OCCCn4cccn4)ccc3n2C2CCC2)cc1 [Compound 2606]
32 | 209 to 211 | CC(C)OC(=O)Nc1ccc(-c2c(C#N)c3cc(OCCCn4ccnc4)ccc3n2C2CCC2)cc1 [Compound 2607]
33 | 153 to 155 | COCCOc1ccc2c(C#N)c(-c3ccc(NC(=O)OC(C)C)cc3)n(C(C)C)c2c1 [Compound 2608]
34 | 165 to 166 | COCCOc1ccc2c(C#N)c(-c3ccc(NC(=O)OC4CCC4)cc3)n(C(C)C)c2c1 [Compound 2609]
35 | 181 to 183 | COCCOc1ccc2c(C#N)c(-c3ccc(NC(=O)OC4CCOC4)cc3)n(C(C)C)c2c1 (centres unmarked) [Compound 2610]
36 | 115 to 116 | CCOCCOc1ccc2c(C#N)c(-c3ccc(NC(=O)OC(C)C)cc3)n(C3CCC3)c2c1 [Compound 2611]
37 | 148 to 150 | CCOCCOc1ccc2c(C#N)c(-c3ccc(NC(=O)NC(C)C)cc3)n(C3CCC3)c2c1 [Compound 2612]
38 | 141 to 142 | CCOCCOc1ccc2c(C#N)c(-c3ccc(NC(=O)OC(C)C4CC4)cc3)n(C3CCC3)c2c1 (centres unmarked) [Compound 2613]
39 | 118 to 120 | CC(OC(=O)Nc1ccc(-c2c(C#N)c3ccc(OC4CCOCC4)cc3n2C2CCC2)cc1)C1CC1 (centres unmarked) [Compound 2615]
40 | 127 to 129 | CCC(CC)OC(=O)Nc1ccc(-c2c(C#N)c3ccc(OC4CCOCC4)cc3n2C2CCC2)cc1 [Compound 2617]
41 | 96 to 98 | CC(OC(=O)Nc1ccc(-c2c(C#N)c3ccc(OC4CCOCC4)cc3n2C2CCC2)cc1)c1ccccc1 (centres unmarked) [Compound 2618]
42 | 185 to 188 | CC(C)OC(=O)Nc1ccc(-c2c(C#N)c3cc(OCCn4ccnc4)ccc3n2C2CCC2)cc1 [Compound 2631]
43 | 122 to 124 | CCOCCOc1ccc2c(C#N)c(-c3ccc(NC(=O)OC(C)C(F)(F)F)cc3)n(C3CCC3)c2c1 (centres unmarked) [Compound 2636]
44 | 196 to 197 | CC(C)OC(=O)Nc1ccc(-c2c(C#N)c3ccc(O[C@@H]4CCOC4)cc3n2C2CCC2)cc1 [Compound 2638]
45 | 93 to 95 | CC(OC(=O)Nc1ccc(-c2c(C#N)c3ccc(OCCCCn4ccnc4)cc3n2C2CCC2)cc1)c1ccc(F)cc1 (centres unmarked) [Compound 2642]
46 | 168 to 169 | CC(OC(=O)Nc1ccc(-c2c(C#N)c3ccc(OCCCCn4cncn4)cc3n2C2CCC2)cc1)C(F)(F)F (centres unmarked) [Compound 2643]
47 | 108 to 110 | CC(OC(=O)Nc1ccc(-c2c(C#N)c3ccc(OCCCCn4cncn4)cc3n2C2CCC2)cc1)c1ccc(F)cc1 (centres unmarked) [Compound 2644]

Source: US7772271B2 (priority 2004, dated 2010)
